A short description of test [1]: Antibacterial activity against Mycobacterium avium subsp. avium ATCC 25291 incubated for 11 days measured by microplate reader method. In kind it is functional. The following applies: ATCC 25291, 264 h, time 11 day.
The nature of test [2]: Antibacterial activity against Mycobacterium abscessus subsp. abscessus ATCC 19977 incubated for 5 days measured by microplate reader method. In kind it is functional. To be noted: Mycobacteroides abscessus, ATCC 19977, 120 h; time 5 day.
Test [3] addresses T1, Phospho-N-acetylmuramoyl-pentapeptide-transferase (Staphylococcus aureus, UniProt P0C1R8).
T1 sequence (P0C1R8 whole entry): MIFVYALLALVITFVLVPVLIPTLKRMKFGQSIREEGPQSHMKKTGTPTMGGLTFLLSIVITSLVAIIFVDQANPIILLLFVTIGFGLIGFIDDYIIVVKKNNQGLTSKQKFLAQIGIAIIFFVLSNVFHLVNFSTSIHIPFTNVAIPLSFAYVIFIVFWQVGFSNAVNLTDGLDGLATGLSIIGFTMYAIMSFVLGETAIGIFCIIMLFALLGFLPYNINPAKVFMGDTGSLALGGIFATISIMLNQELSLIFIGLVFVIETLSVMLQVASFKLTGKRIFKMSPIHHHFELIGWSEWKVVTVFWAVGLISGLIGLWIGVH
Nature of the test: Inhibition of Staphylococcus aureus MraY assessed as reduction of dansylated lipid I formation using UDP-MurNAc-dansylpentapeptide as substrate incubated for 3 to 4 hrs by fluorescence based analysis.

The test system of test [4] is Mycolicibacterium smegmatis. Nature of the test: Antibacterial activity against Mycobacterium smegmatis mc2 155 incubated for 4 days measured by microplate reader method. The following applies: mc2 155, 96 h, time 4 day. In kind it is functional.
The test system of test [5] is Mycobacterium tuberculosis. The experiment in a line: Antibacterial activity against Mycobacterium tuberculosis H37Rv incubated for 14 days measured by microplate reader method. Format: functional. To be noted: 336 h, time 14 day.
Test [6] can be described thus: Inhibition of bacterial MraY. More on the design: species or system Bacteria.
Test [7] has as its system Mycolicibacterium smegmatis. The experiment in a line: Antibacterial activity against Mycobacterium smegmatis. In kind it is functional.

MIC50, IC50 and MIC data for 5 molecules are collected here from ChEMBL document CHEMBL5214959, “Synthesis of capuramycin and its analogues via a Ferrier-type I reaction and their biological evaluation” (Bioorg Med Chem, 2022).

In brackets after ≈: the same amount, converted by molar mass. A value given as a limit tells only on which side of the number the result lay.

Usually MIC50 stands for the lowest concentration that inhibits either 50% of growth or 50% of the strains tested, depending on the study. A lower MIC50 goes with higher susceptibility. By IC50 is commonly meant the concentration at which inhibition is half-maximal. Regarding `NC(=O)[C@H](O[C@H]1OC(C(=O)N[C@H]2CCCCNC2=O)=C[C@H](O)[C@@H]1O)[C@H]1O[C@@H](n2ccc(=O)[nH]c2=O)[C@H](O)[C@@H]1O`, the MIC50 was 16 µg/mL (≈ 28.8 µM) in test [1], at least 64 µg/mL in test [2], 32 µg/mL (≈ 57.6 µM) in test [4] and over 32 µg/mL in test [5]. For the same molecule, the concentration for half-maximal inhibition (IC50) in test [3] turned out to be 2 µM.
Regarding `CO[C@H]1[C@@H](O)[C@H](n2ccc(=O)[nH]c2=O)O[C@@H]1[C@H](C#N)O[C@H]1OC(C(=O)N[C@H]2CCCCNC2=O)=C[C@H](O)[C@@H]1O`, the MIC50 is over 32 µg/mL in test [1], over 64 µg/mL in test [2], over 32 µg/mL in test [4] and over 32 µg/mL in test [5]. In addition, the IC50 in test [3] was determined as 12 µM.
For the molecule `CO[C@H]1[C@@H](O)[C@H](n2ccc(=O)[nH]c2=O)O[C@@H]1[C@H](O[C@H]1OC(C(=O)N[C@H]2CCCCNC2=O)=C[C@H](O)[C@@H]1O)C(N)=O`, the MIC50 in test [1] is over 32 µg/mL; in test [2], at least 64 µg/mL; in test [4], over 32 µg/mL; in test [5], over 32 µg/mL. Moreover, in test [3], the concentration for half-maximal inhibition (IC50) was 10 µM.
Take `O=C(N[C@H]1CCCCNC1=O)C1=C[C@H](O)[C@H](O)[C@@H](OC[C@H]2O[C@@H](n3ccc(=O)[nH]c3=O)[C@H](O)[C@@H]2O)O1`: the MIC50 in test [1] is over 32 µg/mL; in test [2] it was 32 µg/mL (≈ 62.4 µM); in test [4], over 32 µg/mL; in test [5] it was over 32 µg/mL. In addition, the half-maximal inhibitory concentration (IC50) in test [3] came out at 76 µM.
The term MIC denotes the smallest concentration in the dilution series that meets the test's criterion for growth inhibition. A lower MIC goes with a more susceptible organism. Consider `CO[C@H]1[C@@H](O)[C@H](n2ccc(=O)[nH]c2=O)O[C@@H]1[C@@H](O[C@H]1OC(C(=O)N[C@H]2CCCCNC2=O)=C[C@H](O)[C@@H]1O)C(N)=O` [CAPURAMYCIN], for which the MIC50 in test [1] turned out to be 8 µg/mL (≈ 14 µM); in test [2] it was 64 µg/mL (≈ 112 µM); in test [4], 32 µg/mL (≈ 56.2 µM); in test [5], 32 µg/mL (≈ 56.2 µM). In addition, the IC50 in test [3] worked out at 0.33 µM; in test [6], 0.01 µg/mL (≈ 0.0176 µM). Also, the MIC in test [7] amounted to 6.25 µg/mL (≈ 11 µM).
